Reference: paper PMC9282638, “A Suite of Activity-Based Probes To Dissect the KLK Activome in Drug-Resistant Prostate Cancer” (Journal of the American Chemical Society, 2021)

Tests used:
Format in all cases: biochemical
KLK2 = target: T1, KLK2 (Homo sapiens, UniProt P20151); experiment: Inhibition of KLK2 after incubation with 50 µM probe (Figure S8); details: 30 minutes
T1 construct: purchased R&D Systems
Method: Table S1: Antibodies used throughout this project
Protein Supplier Cat. No. Host /clonal Immunogen
KLK2 Abcam Ab124899 Rabbit Mono Synthetic peptide within amino […]
KLK3 SCBT sc-7316 Mouse Mono Full length KLK3 of human origin
KLK14 Abcam Ab128957 Rabbit Mono Synthetic peptide within the C- […]
Transferrin Abcam Ab66952 Rabbit Poly Full length Transferrin of human […]
HSP90 SCBT sc-69703 Mouse Mono Full length HSP90 of human
In gel-fluorescence: LNCaP conditioned media (50 µg) was treated with a fluorescent activity-based probe for 1 h. After 1 h, proteins were precipitated using the aforementioned procedure and resuspended in a 3:1 ratio of PBS and sample loading buffer to a concentration of 1 mg/mL. After boiling for 5 min, 10 µL of sample was loaded on to a hand cast 12 % Bis-Tris gel and proteins were separated by SDS-PAGE as described above. Gels were then scanned for fluorescence at the appropriate wavelength.
Immunoprecipitation: LNCaP conditioned media (100 µg) was treated with the appropriate ABP for 1h. Proteins were precipitated using the CHCl3/MeOH procedure outlined above and resuspended in RIPA buffer (20 mM Tris, 150 mM NaCl, 1 mM EDTA, 1mM EGTA, 1 % NP-40, 1 % sodium deoxycholate, 2.5 mM sodium pyrophosphate, 1 mM glycerophosphate, 1 mM Na3VO4 pH 7.5) to a concentration of 1 mg/mL. […]

KLK14 = target: T2, KLK14 (Homo sapiens, UniProt Q9P0G3); experiment: Inhibition of KLK14 after incubation with 50 µM probe (Figure S8); details: 30 minutes
T2 construct: purchased R&D Systems
T2 sequence (Q9P0G3 25-251): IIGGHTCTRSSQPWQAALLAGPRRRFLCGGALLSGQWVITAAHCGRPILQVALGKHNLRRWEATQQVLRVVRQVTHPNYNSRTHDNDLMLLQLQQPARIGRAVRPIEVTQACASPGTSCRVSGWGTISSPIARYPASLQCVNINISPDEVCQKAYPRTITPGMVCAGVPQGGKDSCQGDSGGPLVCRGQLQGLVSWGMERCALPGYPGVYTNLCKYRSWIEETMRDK

KLK3 = target: T3, KLK3 (Homo sapiens, UniProt P07288); experiment: Probe labeling of KLK3 in LNCaP conditioned media (in-gel fluorescence / streptavidin blot); details: LNCaP CM, 1 h treatment
T3 construct: endogenous in cells; host or cells: LNCaP cells treated with 10 nM DHT; conditioned medium
T3 sequence (P07288 25-261): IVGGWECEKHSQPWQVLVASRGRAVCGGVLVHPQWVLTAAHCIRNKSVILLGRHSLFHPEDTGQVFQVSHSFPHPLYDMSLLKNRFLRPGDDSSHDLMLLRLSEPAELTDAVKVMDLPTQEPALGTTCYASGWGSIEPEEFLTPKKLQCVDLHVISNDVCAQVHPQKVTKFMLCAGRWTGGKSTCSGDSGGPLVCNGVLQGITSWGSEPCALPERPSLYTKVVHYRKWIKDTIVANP
Excerpt: An optimized tetrapeptide designed to occupy the KLK S1–S4 subsites was envisaged for the ABP specificity element, grafted onto a peptidyl-diphenyl phosphonate (DPP) warhead which reacts specifically and exclusively with the Ser195 residue in the KLK3 active site.[21] […] We therefore replaced the boronic acid in 2 with the DPP moiety in 1 and capped the N-terminus with a tetramethyl rhodamine (TAMRA) fluorophore to afford 3, which served as a prototype ABP for KLK3. A mixed solid-phase and solution-phase approach was used for the synthesis of peptidyl-DPP compounds, as described previously (Figures S1 and S2).[24] […]
Despite exquisite selectivity, maximal KLK3 labeling was achieved only after treatment with 20 μM 3 for 1 h. We therefore optimized probe potency by systematically modifying each amino acid side chain in the P1–P4 positions of a morpholine-capped peptidyl-DPP inhibitor scaffold and determined the potency of each analogue using competitive-ABPP against 3.[25],[26] […] Second generation biotinylated 20 and fluorescent 21 ABPs (Figures 2G and S7) based on this scaffold retained exquisite selectivity for KLK3 in LNCaP CM, but in contrast to first-generation ABP 3 achieved maximum labeling at only 1 μM and readily detectable labeling down to 130 nM (Figures 2H and S7). […]

T1 sequence (P20151 25-261): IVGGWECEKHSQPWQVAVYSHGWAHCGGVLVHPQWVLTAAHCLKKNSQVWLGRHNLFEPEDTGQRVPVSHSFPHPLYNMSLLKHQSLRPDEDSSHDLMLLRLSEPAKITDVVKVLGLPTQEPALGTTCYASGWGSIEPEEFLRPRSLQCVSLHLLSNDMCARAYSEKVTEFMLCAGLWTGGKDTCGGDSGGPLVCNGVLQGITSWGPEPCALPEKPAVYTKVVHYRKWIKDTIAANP

CCC[C@H](NC(=O)[C@H](CCC(N)=O)NC(=O)[C@H](CC(N)=O)NC(=O)CCCCCNC(=O)CCCC[C@@H]1SC[C@@H]2NC(=O)N[C@@H]21)C(=O)NC(c1ccc(C(N)=O)cc1)P(=O)(Oc1ccccc1)Oc1ccccc1 (stereo partly shown) [compound 20]
inhibition of KLK2 (KLK2): no inhibition
inhibition of KLK14 (KLK14): no inhibition
concentration at which maximal KLK3 labeling was achieved (KLK3): 1 µM
lowest concentration with readily detectable KLK3 labeling (KLK3): 130 nM
